Assay results: publication PMC10026764, “Overcoming the imatinib-resistant BCR-ABL mutants with new ureidobenzothiazole chemotypes endowed with potent and broad-spectrum anticancer activity” (Journal of Enzyme Inhibition and Medicinal Chemistry, 2023)
“And” between values parts separate entries of the source, which are not always exact repeats. Equal entries are not always repeated. Where two headings read alike, the source gives them in different places.

Assays:
BCR-ABL^WT = BCR-ABL^WT (Homo sapiens, UniProt P00519); assay: In vitro kinase screening (RBC), BCR-ABL^WT; type: biochemical; conditions: 10-dose IC50 mode, 3-fold serial dilution, 10 μM ATP
CCRF-CEM = assay: NCI-60 five-dose SRB assay; type: cell-based; conditions: Homo sapiens, leukaemia
MOLT-4 = assay: NCI-60 five-dose SRB assay; type: cell-based, human; conditions: MOLT-4, leukaemia; for GI50 / CC50: Homo sapiens; for CC50: read-out: LC50 (the source's name)
EKVX = assay: NCI-60 five-dose SRB assay; type: cell-based; conditions: Homo sapiens, non-small cell lung cancer
NCI-H460 = assay: cells; type: cell-based; conditions: for CC50 / TGI: NCI-H460, NSCL cancer; for CC50: read-out: LC50 (the source's name)
HCC-2998 = assay: NCI-60 five-dose SRB assay; type: cell-based; conditions: Homo sapiens; HCC-2998, colon cancer
HCT-15 [1] = assay: NCI-60 five-dose SRB assay; type: cell-based, human; conditions: HCT-15, colon cancer; for GI50 / CC50: Homo sapiens; for CC50: read-out: LC50 (the source's name)
HT29 = assay: NCI-60 five-dose SRB assay; type: cell-based, human; conditions: HT29, colon cancer; for GI50 / CC50: Homo sapiens, HT-29; for CC50: read-out: LC50 (the source's name)
KM12 = assay: NCI-60 five-dose SRB assay; type: cell-based; conditions: Homo sapiens; KM12, colon cancer
SF-268 = assay: NCI-60 five-dose SRB assay; type: cell-based; conditions: Homo sapiens; SF-268, CNS cancer
SF-539 = assay: NCI-60 five-dose SRB assay; type: cell-based; conditions: Homo sapiens; SF-539, CNS cancer
SNB-19 = assay: NCI-60 five-dose SRB assay; type: cell-based; conditions: Homo sapiens; SNB-19, CNS cancer
SNB-75 [2] = assay: NCI-60 five-dose SRB assay; type: cell-based, human; conditions: SNB-75, CNS cancer; for GI50 / CC50: Homo sapiens; for CC50: read-out: LC50 (the source's name)
U251 = assay: cells; type: cell-based; conditions: U251, CNS cancer; for GI50 / CC50: Homo sapiens, U-251; for CC50: read-out: LC50 (the source's name)
MALME-3M [3] = assay: NCI-60 five-dose SRB assay; type: cell-based; conditions: Homo sapiens, melanoma
M14 = assay: NCI-60 five-dose SRB assay; type: cell-based, human; conditions: M14, melanoma; for GI50 / LC50 (concentration killing 50% of cells): Homo sapiens
MDA-MB-435 = assay: NCI-60 five-dose SRB assay; type: cell-based; conditions: Homo sapiens; MDA-MB-435, melanoma
SK-MEL-28 = assay: NCI-60 five-dose SRB assay; type: cell-based; conditions: Homo sapiens; SK-MEL-28, melanoma
UACC-257 = assay: NCI-60 five-dose SRB assay; type: cell-based; conditions: Homo sapiens; UACC-257, melanoma
UACC-62 = assay: NCI-60 five-dose SRB assay; type: cell-based; conditions: Homo sapiens; UACC-62, melanoma
OVCAR-5 = assay: NCI-60 five-dose SRB assay; type: cell-based, human; conditions: OVCAR-5, ovarian cancer; for GI50 / LC50 (50% net cell kill): Homo sapiens
OVCAR-8 [4] = assay: NCI-60 five-dose SRB assay; type: cell-based; conditions: Homo sapiens; OVCAR-8, ovarian cancer
NCI/ADR-RES = assay: NCI-60 five-dose SRB assay; type: cell-based; conditions: Homo sapiens, ovarian cancer
SK-OV-3 = assay: NCI-60 five-dose SRB assay; type: cell-based; conditions: Homo sapiens; SK-OV-3, ovarian cancer
786-0 [5] = assay: NCI-60 five-dose SRB assay; type: cell-based; conditions: Homo sapiens; 786-0, renal cancer
RXF 393 = assay: NCI-60 five-dose SRB assay; type: cell-based; conditions: Homo sapiens; RXF 393, renal cancer
SN12C = assay: NCI-60 five-dose SRB assay; type: cell-based; conditions: Homo sapiens, renal cancer
MDA-MB-231 = assay: NCI-60 five-dose SRB assay; type: cell-based; conditions: Homo sapiens; MDA-MB-231, breast cancer
HS 578T = assay: NCI-60 five-dose SRB assay; type: cell-based; conditions: Homo sapiens, breast cancer
BT-549 = assay: NCI-60 five-dose SRB assay; type: cell-based; conditions: Homo sapiens; BT-549, breast cancer
T-47D = assay: NCI-60 five-dose SRB assay; type: cell-based; conditions: Homo sapiens, T47D, breast cancer
RPMI-8226 = test system: RPMI-8226; parameters: method as in earlier work; conditions: imatinib mesylate NSC 743414, NCI data; cited from earlier work
HCT-15 [6] = test system: HCT-15; parameters: method as in earlier work; conditions: imatinib mesylate NSC 743414, NCI data; cited from earlier work
SNB-75 [7] = test system: SNB-75; parameters: method as in earlier work; conditions: imatinib mesylate NSC 743414, NCI data; cited from earlier work
LOX IMVI = test system: LOX IMVI; parameters: method as in earlier work; conditions: imatinib mesylate NSC 743414, NCI data; cited from earlier work
MALME-3M [8] = test system: MALME-3M; parameters: method as in earlier work; conditions: imatinib mesylate NSC 743414, NCI data; cited from earlier work
SK-MEL-2 = test system: SK-MEL-2; parameters: method as in earlier work; conditions: imatinib mesylate NSC 743414, NCI data; cited from earlier work
OVCAR-4 = test system: OVCAR-4; parameters: method as in earlier work; conditions: imatinib mesylate NSC 743414, NCI data; cited from earlier work
OVCAR-8 [9] = test system: OVCAR-8; parameters: method as in earlier work; conditions: imatinib mesylate NSC 743414, NCI data; cited from earlier work
786-0 [10] = test system: 786-0; parameters: method as in earlier work; conditions: imatinib mesylate NSC 743414, NCI data; cited from earlier work
CAKI-1 = test system: CAKI-1; parameters: method as in earlier work; conditions: imatinib mesylate NSC 743414, NCI data; cited from earlier work
[11] = Homo sapiens, NCI-H460, NCI-H460, non-small cell lung cancer

Chain of BCR-ABL^WT (P00519 27-1130): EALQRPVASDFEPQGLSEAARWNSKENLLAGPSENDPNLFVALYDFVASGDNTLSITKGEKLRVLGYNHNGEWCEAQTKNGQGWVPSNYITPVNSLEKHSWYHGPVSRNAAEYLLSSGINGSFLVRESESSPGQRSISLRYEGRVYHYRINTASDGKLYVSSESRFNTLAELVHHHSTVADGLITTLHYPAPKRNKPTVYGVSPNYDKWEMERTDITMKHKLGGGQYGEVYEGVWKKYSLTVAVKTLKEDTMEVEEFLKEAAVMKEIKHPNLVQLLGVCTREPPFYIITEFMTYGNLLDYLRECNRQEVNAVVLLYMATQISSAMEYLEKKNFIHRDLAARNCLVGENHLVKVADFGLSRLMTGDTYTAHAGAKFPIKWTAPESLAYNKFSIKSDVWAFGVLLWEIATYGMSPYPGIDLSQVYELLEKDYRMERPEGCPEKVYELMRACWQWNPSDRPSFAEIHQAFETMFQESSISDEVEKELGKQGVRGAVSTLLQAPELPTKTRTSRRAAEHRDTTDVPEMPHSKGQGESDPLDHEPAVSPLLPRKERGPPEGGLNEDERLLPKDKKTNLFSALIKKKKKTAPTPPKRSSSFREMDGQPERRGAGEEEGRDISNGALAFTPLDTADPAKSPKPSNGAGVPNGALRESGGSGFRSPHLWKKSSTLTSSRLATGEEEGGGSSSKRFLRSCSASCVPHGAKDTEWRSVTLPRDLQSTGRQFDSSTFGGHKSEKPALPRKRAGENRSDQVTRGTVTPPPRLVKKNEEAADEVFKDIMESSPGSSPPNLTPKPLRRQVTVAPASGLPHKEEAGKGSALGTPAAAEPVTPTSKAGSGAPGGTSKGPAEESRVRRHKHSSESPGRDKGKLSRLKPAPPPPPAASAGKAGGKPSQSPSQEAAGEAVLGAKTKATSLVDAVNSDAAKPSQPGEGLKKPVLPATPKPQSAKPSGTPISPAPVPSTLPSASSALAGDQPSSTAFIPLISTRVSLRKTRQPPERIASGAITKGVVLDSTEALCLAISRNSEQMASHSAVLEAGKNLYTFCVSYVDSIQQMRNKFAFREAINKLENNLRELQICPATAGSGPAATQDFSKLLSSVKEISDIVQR

CCN1CCN(c2ccc(NC(=O)Nc3nc4ccc(-c5ccccc5OC)cc4s3)cc2)CC1 [Compound 2b]
IC50 (BCR-ABL^WT): 0.0007 µM and 0.000701 µM | GI50 (CCRF-CEM): 1.81 µM | GI50 (MOLT-4): 1.8 µM | CC50 (MOLT-4): 7.45 µM | TGI (MOLT-4): 3.67 µM | GI50 (EKVX): 1.51 µM | GI50 (NCI-H460; [11]): ~1.76 µM | CC50 (NCI-H460; Homo sapiens): 6.01 µM | TGI (NCI-H460): 3.27 µM | GI50 (NCI-H460; NCI-H460, non-small cell lung cancer): 1.77 µM | GI50 (HCC-2998): 1.83 µM | TGI (HCT-15 [1]): 2.47 µM | GI50 (HCT-15 [1]): 1.2 µM | CC50 (HCT-15 [1]): 5.06 µM | TGI (HT29): 2.70 µM | GI50 (HT29): 1.31 µM | CC50 (HT29): 5.57 µM | GI50 (KM12): 1.75 µM | GI50 (SF-268): 1.87 µM | GI50 (SF-539): 1.6 µM | GI50 (SNB-19): 2.03 µM | GI50 (SNB-75 [2]): 1.49 µM | CC50 (SNB-75 [2]): 5.46 µM | TGI (SNB-75 [2]): 2.86 µM | GI50 (U251): 1.57 µM | CC50 (U251): 5.51 µM | TGI (U251): 2.94 µM | GI50 (MALME-3M [3]): 1.71 µM | GI50 (M14): 1.62 µM | LC50 (concentration killing 50% of cells) (M14): 5.66 µM | TGI (M14): 3.03 µM | GI50 (MDA-MB-435): 1.71 µM | GI50 (SK-MEL-28): 1.76 µM | GI50 (UACC-257): 2.11 µM | GI50 (UACC-62): 1.87 µM | GI50 (OVCAR-5): 1.8 µM | LC50 (50% net cell kill) (OVCAR-5): 6.33 µM | TGI (OVCAR-5): 3.37 µM | GI50 (OVCAR-8 [4]): 1.99 µM | GI50 (NCI/ADR-RES): 1.72 µM | GI50 (SK-OV-3): 1.79 µM | GI50 (786-0 [5]): 1.8 µM | GI50 (RXF 393): 1.7 µM | GI50 (SN12C): 1.77 µM | GI50 (MDA-MB-231): 1.72 µM | GI50 (HS 578T): 1.95 µM | GI50 (BT-549): 1.88 µM | GI50 (T-47D): 1.58 µM

COc1ccccc1-c1ccc2nc(NC(=O)Nc3cc(C(F)(F)F)cc(C(F)(F)F)c3)sc2c1 [Compound 2e]
IC50 (BCR-ABL^WT): 4.09 µM | GI50 (CCRF-CEM): 2.43 µM | GI50 (MOLT-4): 1.59 µM | CC50 (MOLT-4): 51.3 µM | TGI (MOLT-4): 7.24 µM | GI50 (NCI-H460; [11]): 2.26 µM | CC50 (NCI-H460; Homo sapiens): 23.5 µM | TGI (NCI-H460): 6.12 µM | GI50 (HCC-2998): 2.65 µM | TGI (HCT-15 [1]): 10.6 µM | GI50 (HCT-15 [1]): 2.55 µM | CC50 (HCT-15 [1]): 34.6 µM | TGI (HT29): 9.21 µM | GI50 (HT29): 2.15 µM | CC50 (HT29): 33 µM | GI50 (KM12): 2.07 µM | GI50 (SF-268): 2.86 µM | GI50 (SF-539): 1.99 µM | GI50 (SNB-19): 2.44 µM | GI50 (SNB-75 [2]): 2.25 µM | CC50 (SNB-75 [2]): 45.3 µM | TGI (SNB-75 [2]): 11.8 µM | GI50 (U251): 2.31 µM | CC50 (U251): 34.4 µM | TGI (U251): 10.3 µM | GI50 (MALME-3M [3]): 1.81 µM | GI50 (M14): 1.54 µM | LC50 (concentration killing 50% of cells) (M14): 6.73 µM | TGI (M14): 3.22 µM | GI50 (MDA-MB-435): 2.27 µM | GI50 (SK-MEL-28): 2.51 µM | GI50 (UACC-257): 2.31 µM | GI50 (UACC-62): 1.56 µM | GI50 (OVCAR-5): 2.54 µM | LC50 (50% net cell kill) (OVCAR-5): 32.7 µM | TGI (OVCAR-5): 9.66 µM | GI50 (OVCAR-8 [4]): 3.04 µM | GI50 (NCI/ADR-RES): 2.37 µM | GI50 (SK-OV-3): 2.92 µM | GI50 (786-0 [5]): 1.44 µM | GI50 (RXF 393): 2.19 µM | GI50 (SN12C): 1.7 µM | GI50 (MDA-MB-231): 1.95 µM | GI50 (HS 578T): 2.35 µM | GI50 (BT-549): 1.62 µM | GI50 (T-47D): 2.16 µM

Cc1ccc(NC(=O)c2ccc(CN3CCN(C)CC3)cc2)cc1Nc1nccc(-c2cccnc2)n1 [Imatinib]
GI50 (RPMI-8226): 6.05 µM | GI50 (HCT-15 [6]): 19.9 µM | GI50 (SNB-75 [7]): 20.3 µM | GI50 (LOX IMVI): 18.1 µM | GI50 (MALME-3M [8]): 16.3 µM | GI50 (SK-MEL-2): 25 µM | GI50 (OVCAR-4): 20 µM | GI50 (OVCAR-8 [9]): 27.7 µM | GI50 (786-0 [10]): 16 µM | GI50 (CAKI-1): 34 µM
